This note sets out measurements from ChEMBL document CHEMBL2146451, “Antidiabetic activity of some pentacyclic acid triterpenoids, role of PTP-1B: in vitro, in silico, and in vivo approaches” (Eur J Med Chem, 2011).

The subject of experiment [1] is Rattus norvegicus. Description: Antidiabetic activity in STZ-nicotinamide diabetic Wistar rat T2DM model assessed as decrease in blood glucose level at 5 mg/kg, po after 1 hr by enzymatic glucose oxidase method relative to control. The class given is functional. On the set-up: scale not given: the % may be the effect or the level left.
The subject of experiment [2] is Rattus norvegicus. Description: Antidiabetic activity in STZ-nicotinamide diabetic Wistar rat T2DM model assessed as decrease in blood glucose level at 5 mg/kg, po after 7 hrs by enzymatic glucose oxidase method relative to control. Format: functional. On the set-up: scale not given: the % may be the effect or the level left.
Experiment [3] deals with Rattus norvegicus. The experiment in a line: Antidiabetic activity in STZ-nicotinamide diabetic Wistar rat T2DM model assessed as decrease in blood glucose level at 5 mg/kg, po after 5 hrs by enzymatic glucose oxidase method relative to control. The class given is functional. On the set-up: scale not given: the % may be the effect or the level left.
Experiment [4] relates to Rattus norvegicus. The experiment in a line: Antidiabetic activity in STZ-nicotinamide diabetic Wistar rat T2DM model assessed as decrease in blood glucose level at 5 mg/kg, po after 3 hrs by enzymatic glucose oxidase method relative to control. Format: functional. On the set-up: scale not given: the % may be the effect or the level left.
In experiment [5] the test system is Rattus norvegicus. Description: Antidiabetic activity in STZ-nicotinamide diabetic Wistar rat T2DM model assessed as decrease in blood glucose level at 50 mg/kg, po after 1 hr by enzymatic glucose oxidase method relative to control. Format: functional. On the set-up: scale not given: the % may be the effect or the level left.
The target in experiment [6] is Receptor-type tyrosine-protein phosphatase F (Homo sapiens, UniProt P10586). The experiment in a line: Inhibition of human recombinant LAR expressed in Escherichia coli TB1 using p-nitrophenyl phosphate as substrate after 1 hr.
For experiment [7], the system named is Rattus norvegicus. The experiment in a line: Antidiabetic activity in STZ-nicotinamide diabetic Wistar rat T2DM model assessed as decrease in blood glucose level at 50 mg/kg, po after 7 hrs by enzymatic glucose oxidase method relative to control. Format: functional. On the set-up: scale not given: the % may be the effect or the level left.
For experiment [8], the system named is Rattus norvegicus. Description: Antidiabetic activity in STZ-nicotinamide diabetic Wistar rat T2DM model assessed as decrease in blood glucose level at 50 mg/kg, po after 3 hrs by enzymatic glucose oxidase method relative to control. On the set-up: scale not given: the % may be the effect or the level left. Format: functional.
Experiment [9] concerns Rattus norvegicus. The experiment in a line: Antidiabetic activity in STZ-nicotinamide diabetic Wistar rat T2DM model assessed as decrease in blood glucose level at 50 mg/kg, po after 5 hrs by enzymatic glucose oxidase method relative to control. On the set-up: scale not given: the % may be the effect or the level left. Format: functional.
For experiment [10], the target named is T1, Low molecular weight phosphotyrosine protein phosphatase (Homo sapiens, UniProt P24666).
T1 sequence (P24666 whole entry): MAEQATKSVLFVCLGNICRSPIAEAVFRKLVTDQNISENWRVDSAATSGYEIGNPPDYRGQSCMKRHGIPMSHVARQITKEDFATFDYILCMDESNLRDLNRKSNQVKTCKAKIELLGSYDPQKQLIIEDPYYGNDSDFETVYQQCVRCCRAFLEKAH
Description: Inhibition of human recombinant LMW-PTP1 expressed in Escherichia coli TB1 using p-nitrophenyl phosphate as substrate after 1 hr.

In experiment [11] the target is T1, Low molecular weight phosphotyrosine protein phosphatase. Description: Inhibition of human recombinant LMW-PTP2 expressed in Escherichia coli TB1 using p-nitrophenyl phosphate as substrate after 1 hr.
Experiment [12] can be described thus: Inhibition of yeast LMW-PTP1 expressed in Escherichia coli TB1 using p-nitrophenyl phosphate as substrate after 1 hr. On the set-up: species or system Saccharomyces cerevisiae.
Experiment [13] deals with T2, Tyrosine-protein phosphatase non-receptor type 1 (Homo sapiens, UniProt P18031).
T2 sequence (P18031 whole entry): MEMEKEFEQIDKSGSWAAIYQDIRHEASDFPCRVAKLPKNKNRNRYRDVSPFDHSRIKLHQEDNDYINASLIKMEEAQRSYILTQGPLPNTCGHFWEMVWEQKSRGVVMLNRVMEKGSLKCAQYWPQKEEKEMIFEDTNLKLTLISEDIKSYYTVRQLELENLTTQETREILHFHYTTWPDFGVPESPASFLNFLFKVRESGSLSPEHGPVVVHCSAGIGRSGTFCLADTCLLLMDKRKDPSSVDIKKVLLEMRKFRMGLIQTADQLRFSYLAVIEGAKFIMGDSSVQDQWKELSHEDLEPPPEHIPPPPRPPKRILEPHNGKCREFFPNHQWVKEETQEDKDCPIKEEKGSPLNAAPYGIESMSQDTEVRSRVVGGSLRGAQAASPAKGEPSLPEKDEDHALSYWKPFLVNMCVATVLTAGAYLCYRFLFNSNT
Description: Inhibition of human recombinant PTP-1B expressed in Escherichia coli TB1 using p-nitrophenyl phosphate as substrate after 1 hr

Experiment [14] addresses T2, Tyrosine-protein phosphatase non-receptor type 1. The experiment in a line: Mixed type inhibition of human recombinant PTP-1B expressed in Escherichia coli TB1 using p-nitrophenyl phosphate as substrate.
For a further experiment, the species on record is Mus musculus. The experiment in a line: Antidiabetic activity in normal Swiss mouse assessed as reduction of blood glucose level by glucose tolerance test relative to control. The class given is functional. On the set-up: scale not given: the % may be the effect or the level left.

Receptor-type tyrosine-protein phosphatase F, sequence (P10586 whole entry): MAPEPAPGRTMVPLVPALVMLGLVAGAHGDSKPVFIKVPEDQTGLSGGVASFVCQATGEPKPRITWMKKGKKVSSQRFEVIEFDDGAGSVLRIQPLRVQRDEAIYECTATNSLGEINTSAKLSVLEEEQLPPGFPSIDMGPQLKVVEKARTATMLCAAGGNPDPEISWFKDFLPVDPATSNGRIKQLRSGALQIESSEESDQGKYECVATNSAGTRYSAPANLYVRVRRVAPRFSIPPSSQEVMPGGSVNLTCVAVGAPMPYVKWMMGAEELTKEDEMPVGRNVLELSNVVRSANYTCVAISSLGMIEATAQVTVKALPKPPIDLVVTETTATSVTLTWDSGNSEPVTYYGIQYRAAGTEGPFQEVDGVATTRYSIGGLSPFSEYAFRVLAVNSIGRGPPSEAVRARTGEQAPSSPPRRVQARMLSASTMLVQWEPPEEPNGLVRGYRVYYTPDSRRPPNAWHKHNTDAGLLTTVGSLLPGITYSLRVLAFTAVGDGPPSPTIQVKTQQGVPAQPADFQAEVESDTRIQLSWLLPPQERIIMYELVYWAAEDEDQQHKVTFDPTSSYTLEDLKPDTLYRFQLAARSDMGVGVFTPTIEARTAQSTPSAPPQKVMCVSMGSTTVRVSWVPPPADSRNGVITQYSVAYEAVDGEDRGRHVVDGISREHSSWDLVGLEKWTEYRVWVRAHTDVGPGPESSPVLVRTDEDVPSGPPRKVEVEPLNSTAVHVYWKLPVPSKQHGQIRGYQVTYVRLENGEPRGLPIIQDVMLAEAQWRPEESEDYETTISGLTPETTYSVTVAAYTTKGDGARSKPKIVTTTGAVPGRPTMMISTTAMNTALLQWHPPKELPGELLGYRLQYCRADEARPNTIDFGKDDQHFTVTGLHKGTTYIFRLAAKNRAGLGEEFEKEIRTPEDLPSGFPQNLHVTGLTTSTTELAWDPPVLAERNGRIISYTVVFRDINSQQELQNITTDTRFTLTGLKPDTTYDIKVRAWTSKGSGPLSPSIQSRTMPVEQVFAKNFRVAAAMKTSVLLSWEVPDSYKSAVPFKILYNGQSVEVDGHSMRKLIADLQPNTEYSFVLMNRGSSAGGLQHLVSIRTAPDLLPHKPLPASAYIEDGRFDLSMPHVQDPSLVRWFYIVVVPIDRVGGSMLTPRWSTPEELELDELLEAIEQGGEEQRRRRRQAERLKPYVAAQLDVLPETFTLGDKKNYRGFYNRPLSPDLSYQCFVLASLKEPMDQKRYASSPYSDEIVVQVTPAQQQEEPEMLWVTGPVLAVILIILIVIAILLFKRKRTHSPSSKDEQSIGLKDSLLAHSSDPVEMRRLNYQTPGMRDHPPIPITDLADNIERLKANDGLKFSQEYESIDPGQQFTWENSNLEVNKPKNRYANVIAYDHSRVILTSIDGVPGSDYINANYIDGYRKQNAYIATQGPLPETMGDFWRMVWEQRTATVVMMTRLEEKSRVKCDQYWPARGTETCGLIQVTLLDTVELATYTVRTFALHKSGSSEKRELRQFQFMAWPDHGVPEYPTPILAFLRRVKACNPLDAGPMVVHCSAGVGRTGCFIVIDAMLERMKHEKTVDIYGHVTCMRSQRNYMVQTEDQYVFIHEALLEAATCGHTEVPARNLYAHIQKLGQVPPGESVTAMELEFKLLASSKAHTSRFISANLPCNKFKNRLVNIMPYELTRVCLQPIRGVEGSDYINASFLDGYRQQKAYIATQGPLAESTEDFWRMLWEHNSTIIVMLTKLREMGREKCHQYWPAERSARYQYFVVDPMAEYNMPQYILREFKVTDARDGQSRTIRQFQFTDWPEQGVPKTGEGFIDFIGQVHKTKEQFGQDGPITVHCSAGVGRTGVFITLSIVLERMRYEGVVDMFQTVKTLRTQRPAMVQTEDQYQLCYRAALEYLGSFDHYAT

Take `COc1ccc(Cl)cc1C(=O)NCCc1ccc(S(=O)(=O)NC(=O)NC2CCCCC2)cc1` [GLYBURIDE]: the Activity is 20.4% in the experiment on Rattus norvegicus [1], 43.6% in the experiment on Rattus norvegicus [2], 37.5% with Rattus norvegicus [3] and 36.3% in the experiment with Rattus norvegicus [4].
As to `CC1(C)C=C2[C@H]3CC[C@@H]4[C@@]5(C)CC[C@H](O)C(C)(C)[C@@H]5CC[C@@]4(C)[C@]3(C)CC[C@@]2(C(=O)O)CC1` [MOROLIC ACID], the Activity with Rattus norvegicus [5] is 1.54%; in the experiment on Rattus norvegicus [7], 39.2%; with Rattus norvegicus [8], 15.2%; with Rattus norvegicus [9], 8.77%. Further, the half-maximal inhibitory concentration (IC50) in experiment [6] was 35.9 µM; in experiment [10], 13.4 µM; in experiment [11], 30.6 µM.
For `CC1(C)C=C2[C@H]3CC[C@@H]4[C@@]5(C)CCC(=O)C(C)(C)[C@@H]5CC[C@@]4(C)[C@]3(C)CC[C@@]2(C(=O)O)CC1` [MORONIC ACID], the Activity in the experiment on Rattus norvegicus [5] stood at 17.3%; in the experiment with Rattus norvegicus [7], 29.2%; in the experiment with Rattus norvegicus [8], 26.3%; with Rattus norvegicus [9], 15.3%. For the same compound, the IC50 in experiment [6] amounted to 45.6 µM; in experiment [10], 20.6 µM; in [12] it was 51.2 µM; in [13], 13.2 µM; in experiment [11], 27.4 µM. For the same compound, the Ki in [14] was 8 µM.
`CC1(C)CC[C@]2(C(=O)O)CC[C@]3(C)C(=CC[C@@H]4[C@@]5(C)CC[C@H](O)C(C)(C)[C@@H]5CC[C@]43C)[C@@H]2C1` [OLEANOLIC_ACID]: the Activity with Rattus norvegicus [5] was determined as 26.9%; in the experiment on Rattus norvegicus [7], 21.9%; in the experiment on Rattus norvegicus [8], 14.1%; in the experiment with Rattus norvegicus [9], 23.2%; in the experiment filed under Mus musculus, 22%. Moreover, the IC50 amounted to 11.8 µM in experiment [6], 21.2 µM in experiment [10], 44.8 µM in experiment [12] and 22.9 µM in [11].
For `C[C@H]1[C@H](C)CC[C@]2(C(=O)O)CC[C@]3(C)C(=CC[C@@H]4[C@@]5(C)CC[C@H](O)C(C)(C)[C@@H]5CC[C@]43C)[C@H]12` [URSOLIC ACID], the Activity in the experiment with Rattus norvegicus [5] is 13.5%; with Rattus norvegicus [7] it was 38%; in the experiment on Rattus norvegicus [8], 24.4%; in the experiment on Rattus norvegicus [9], 25.7%. Besides, the IC50 in experiment [6] stood at 3.8 µM; in [10], 7.2 µM; in [12], 20 µM; in experiment [11], 11.1 µM.

The term IC50 denotes the midpoint of a concentration-inhibition curve. In general, Ki refers to the dissociation constant of the complex between target and ligand, obtained from inhibition or displacement.
